{"source": "patent US11834679B2", "about": "“Method for producing cardiomyocytes” (KATAOKA CORPORATION, priority 2018, dated 2023)", "system": "human fibroblasts", "test": "Direct induction from human fibroblasts to cardiomyocytes (microscopic observation of morphology and pulsation)", "type": "cell-based", "protocol": "The human fibroblasts used as the material were purchased from DS Pharma Biomedical Co., Ltd. The fibroblasts are derived from human skin. The human fibroblasts were seeded in 8×10^4 portions in 35-mm dishes coated with gelatin (Cat #: 190-15805, manufactured by Wako Pure Chemical Co.) and cultured in DMEM high glucose medium (manufactured by Gibco) supplemented with 10% fetal bovine serum (Fetal bovine serum; FBS), 100 U/mL penicillin, and 100 μg/mL streptomycin for 2 days at 37° C. under 5% CO2 conditions (80-90% or more confluent). DMEM denotes Dulbecco's Modified Eagle Medium (Dulbecco's Modified Eagle Medium). The medium of dishes of the human fibroblasts described above was replaced with a medium of DMEM (High Glucose with L-Glutamine Phenol Red, and Sodium Pyruvate) (manufactured by Gibco) having 20% fetal bovine serum (FBS), 2% B27-supplement (manufactured by Gibco), 1% N2 (manufactured by Gibco), non-essential amino acids (NEAA: manufactured by Gibco), β-mercaptoethanol (manufactured by Nacalai Tesque; final concentration of 0.1 mmol/L), 2-phospho ascorbic acid (manufactured by Sigma-Aldrich; final concentration of 50 μg/mL), 100 U/mL penicillin, 100 μg/mL streptomycin, and low molecular weight compounds described below. […] This was assessed by observing cell clumps that contract spontaneously and periodically under a microscope. […]", "data": [{"molecule": "O=C(NOC[C@H](O)CO)c1ccc(F)c(F)c1Nc1ccc(I)cc1F", "note": "[Ex. A, PD0325901]", "values": [{"measurement": "appearance of spontaneously contracting (myocardial) cell clumps", "setting": "Tables 1-2, FIGS. 1-6, culture day 7 to 17", "result": "low in frequency"}, {"measurement": "Induction efficiency (Morphology, pulsation)", "setting": "human skin fibroblasts cultured with the compound combination, grades ⊚, ◯, Δ, X not defined", "result": "Δ"}]}]}
